Results as given in article PMC6748986, “Potent modulation of the CepR quorum sensing receptor and virulence in a Burkholderia cepacia complex member using non-native lactone ligands” (Scientific Reports, 2019).
Changes are numbered by the printed parent chain. Values joined by “and” are separate entries in the source; they are usually repeats but may differ in a detail not shown here. Equal values may be shown once. Read-outs that look alike come from different tables or passages of the source.

Legend:
CepR [1] = biological target: T1, CepR (Burkholderia cenocepacia, UniProt B4EMD0); experiment: CepR agonism in E. coli β-galactosidase reporter (Ec-reporter) JLD271 [pJN105-cepR + pSC11-cepI]; assay type: cell-based, B. cenocepacia; conditions: for Maximal Activation (%): activity for 100 μM C8-AHL set to 100%, error ±10%
T1 sequence (B4EMD0 1-239): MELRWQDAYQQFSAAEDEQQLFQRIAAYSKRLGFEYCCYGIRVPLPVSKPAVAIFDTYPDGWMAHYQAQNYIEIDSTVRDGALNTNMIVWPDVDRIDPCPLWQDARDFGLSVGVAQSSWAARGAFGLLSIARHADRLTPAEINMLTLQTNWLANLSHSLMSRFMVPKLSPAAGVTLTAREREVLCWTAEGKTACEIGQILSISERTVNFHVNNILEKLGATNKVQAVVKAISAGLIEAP
Method in brief: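 E. coli JLD271 (ΔsdiA) carrying arabinose-inducible CepR (27 mM L-arabinose) and cepI-lacZ fusion, grown 4 h with compound; β-galactosidase measured by CPRG cleavage at 37 °C (~30 min), normalized to OD600. Agonism compared with C8-AHL at 100 μM; screen at 100 μM or solubility limit, then dose-response; ≥3 trials.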

CepR [2] = biological target: T1, CepR; experiment: CepR antagonism in E. coli β-galactosidase reporter (Ec-reporter), competition against C8-AHL; assay type: cell-based, B. cenocepacia; conditions: for Inh% (100-Act%): Table S3, Ec-reporter
Method in brief: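 CepR antagonism was measured in E. coli JLD271 (∆sdiA) carrying pJN105-cepR, which expresses B. cenocepacia CepR from an arabinose-inducible pBAD promoter, and pSC11-cepI, which fuses lacZ to the cepI promoter. Induced cells were grown 4 h with compound and 10 nM C8-AHL. β-Galactosidase activity was then read by CPRG cleavage at 37 °C after Z Buffer permeabilization.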

CepR [3] = biological target: T2, CepR (Burkholderia multivorans, UniProt Q93PF7); experiment: CepR agonism in B. multivorans cepI::lacZ reporter (Bm-reporter); assay type: cell-based; conditions: for EC50: read-out: EC50; for Maximal Activation (%): activity for 100 μM C8-AHL set to 100%, error ±10%
T2 sequence (Q93PF7 1-239): T1 sequence (B4EMD0 1-239) with W5R, A51S, Q69H, N84S, R95Q, D97A
Excerpt: (§1) We next sought to assess if the CepR modulators identified in the Ec-reporter maintained their activities in a member of the Bcc. For these studies, we generated a B. multivorans cepI::lacZ reporter organism (Bm-reporter) using standard allelic exchange methods (see Methods). Along with B. cenocepacia, B. multivorans is one of the most commonly isolated Bcc members[6],[44]. We note that small molecules must contend with a different cellular environment in the native organism relative to E. coli[48]; however, as both CepR and the cepI promoter are highly conserved among Bcc species (Fig. S3), we reasoned that the majority of compounds identified in the Ec-reporter (containing B. cenocepacia versions of the cepI promoter and the cepR gene) would maintain their relative activity profiles in CepR in B. multivorans. […] Similar to the Ec-reporter, CepR binding to the cepI promoter then induces β-galactosidase production, allowing for the quantitation of CepR activity. Using the Bm-reporter organism, we observed robust activity for CepR in response to C8-AHL (EC50 = 0.7 nM, Table 3).
(§2) The B. multivorans cepI::lacZ strain was used to obtain dose-response data for CepR in response to synthetic AHLs. Overnight cultures of B. multivorans cepI::lacZ were grown in LB medium at 37 °C with shaking (225 rpm). Aliquots (200 μL) of a 1:10 dilution of this overnight culture were plated into 96-well plates containing varying concentrations of compound, and then grown for 4 h at 37 °C with shaking (225 rpm). β-galactosidase production was measured as described above for E. coli, with the following changes: permeabilized cells were incubated at 25 °C with substrate CPRG for ~10 min until positive control wells developed a deep red color. For agonism assays, synthetic compound was screened alongside and compared to the native ligand, C8-AHL (100 μM). For antagonism assays, the concentration of native ligand utilized was 5 nM (approximately equal to twice its EC50 value).

CepR [4] = biological target: T2, CepR; experiment: CepR antagonism in B. multivorans cepI::lacZ reporter (Bm-reporter), competition against C8-AHL; assay type: cell-based; conditions: for Inh% (100-Act%): screening conc. 100 μM; for IC50: read-out: IC50
Excerpt: as §1, §2

[5] = Ec-reporter, agonism dose-response
[6] = Table S2, Ec-reporter, screening conc. 100 μM
[7] = screening conc. 100 μM, against 10 nM C8-AHL
[8] = Table S4, Bm-reporter, screening conc. 100 μM
[9] = Bm-reporter, agonism dose-response
[10] = Ec-reporter, against 10 nM C8-AHL
[11] = Table S2, Ec-reporter, screening conc. 25 μM
[12] = Bm-reporter, against 5 nM C8-AHL

Row | Compound | EC50 (CepR [1]; [5]) | Maximal Activation (%) (CepR [1]; Ec-reporter) | Act% (CepR [1]; [6]) [%] | Inh% (100-Act%) (CepR [2]; [7]) [%] | Act% (CepR [3]; [8]) [%] | other results
1 | O=C(CCc1ccc2c(c1)OCO2)N[C@H]1CCOC1=O [Compound E39] | 1.4 nM | 100% | 103 | -40 | 84 | EC50 (CepR [3]; Table S4, Bm-reporter): 9.1 nM
2 | O=C(CCC1CCCCC1)N[C@H]1CCOC1=O [Compound B11] | 130 nM | 87% | 87 | -20 | 51 | –
3 | O=C(CCc1cccc(I)c1)N[C@H]1CCOC1=O [Compound E33] | 0.95 nM | 92% | 92 | -20 | 94 | EC50 (nM) (CepR [1]; [5]): sub-nanomolar; EC50 (CepR [3]; [9]): 0.15 nM; Maximal Activation (%) (CepR [3]; Bm-reporter): 94%
4 | CCCCCCS(=O)(=O)N[C@H]1CCOC1=O [Compound A11] | – | −5.0% | -5.0 | – | – | CepR agonism in words (CepR [1]; Ec-reporter): failed to activate CepR; Inh% (100-Act%) (CepR [4]; Table S5, Bm-reporter): 84%; Maximal Inhibition (%) (CepR [2]; [10]): 78%
5 | N#Cc1ccc(CC(=O)N[C@H]2CCOC2=O)cc1 [Compound E4] | – | – | 0.2 | 29 | – | IC50 (CepR [4]; Table S5, Bm-reporter): ≥ 4500 nM; Inh% (100-Act%) (CepR [4]; Table S5, Bm-reporter): 97%
6 | O=C(CCc1ccc(Cl)cc1)N[C@H]1CCOC1=O [Compound E30] | 4.4 nM | 85% | 85 | -10 | 84 | EC50 (CepR [3]; [9]): 0.75 nM; Maximal Activation (%) (CepR [3]; Bm-reporter): 84%
7 | CCCCCC(=O)CC(=O)N[C@H]1CCOC1=O [3’O-C8-AHL, reference compound] | 1200 nM | 86% | 86 | 3.0 | 72 | IC50 (CepR [2]; [10]): 16000 nM; Maximal Inhibition (%) (CepR [2]; [10]): 71%; EC50 (CepR [3]; [9]): ≥ 3500 nM; Maximal Activation (%) (CepR [3]; Bm-reporter): 72%
8 | CCCCOc1ccc(C(=O)N[C@H]2CCOC2=O)cc1 [Compound R4] | – | – | – | – | – | EC50 (CepR [1]; Table S2, Ec-reporter): 86 nM; Act% (CepR [1]; [11]): 84%; Inh% (100-Act%) (CepR [2]; screening conc. 25 μM): -30%; Act% (CepR [3]; Table S4, Bm-reporter, screening conc. 25 μM): 58%
9 | CCCCCCCCCC(=O)CC(=O)N[C@H]1CCOC1=O [3’O-C12-AHL, reference compound] | – | – | 98 | -40 | 80 | –
10 | O=C(CCCOc1ccc(Cl)cc1)NC1CCOC1=O (stereo not shown) [CL, reference compound] | – | – | 110 | -20 | 80 | EC50 (CepR [1]; Table S2, Ec-reporter): 12 nM; EC50 (CepR [3]; [9]): 940 nM; Maximal Activation (%) (CepR [3]; Bm-reporter): 80%
11 | CC(C)Oc1ccc(C(=O)N[C@H]2CCOC2=O)cc1 [Compound R3] | – | – | 92 | -10 | 40 | EC50 (CepR [1]; Table S2, Ec-reporter): 94 nM
12 | O=C(CCc1cccc(Br)c1)N[C@H]1CCOC1=O [Compound E31] | 4.4 nM | 89% | 89 | -20 | 78 | EC50 (CepR [3]; [9]): ≥ 3400 nM; Maximal Activation (%) (CepR [3]; Bm-reporter): 78%
13 | O=C(CCc1ccc(Br)cc1)N[C@H]1CCOC1=O [Compound B7] | 0.29 nM | 97% | 97 | -50 | 82 | EC50 (nM) (CepR [1]; [5]): sub-nanomolar; EC50 (CepR [3]; [9]): 0.24 nM; Maximal Activation (%) (CepR [3]; Bm-reporter): 82%
14 | CSc1ccc(CCC(=O)N[C@H]2CCOC2=O)cc1 [Compound E34] | 0.07 nM and 0.071 nM | 104% and 100% | 104 | -20 | 110 | Fold more potent than C8-AHL (CepR [1]; Ec-reporter, EC50 comparison): ~100 fold; EC50 (CepR [3]; [9]): 0.94 nM; Maximal Activation (%) (CepR [3]; Bm-reporter): 110%
15 | Cc1ccc(CCC(=O)N[C@H]2CCOC2=O)cc1 [Compound E26] | 5.9 nM | 96% | 96 | -10 | 96 | Maximal Activation (%) (CepR [3]; Bm-reporter): 96%; EC50 (CepR [3]; Table S4, Bm-reporter): 0.77 nM
16 | CCCOc1ccc(C(=O)N[C@H]2CCOC2=O)cc1 [Compound R2] | – | – | 98 | -10 | 92 | EC50 (CepR [1]; Table S2, Ec-reporter): 38 nM

Row | Compound | EC50 (CepR [1]; [5]) | Maximal Activation (%) (CepR [1]; Ec-reporter) | Act% (CepR [1]; [6]) [%] | Inh% (100-Act%) (CepR [2]; [7]) [%] | Act% (CepR [3]; [8]) [%] | other results
17 | O=C(CCc1cccc(C(F)(F)F)c1)N[C@H]1CCOC1=O [Compound E36] | 26 nM | 92% | 92 | -10 | 103 | EC50 (CepR [3]; [9]): ≥ 3900 nM; Maximal Activation (%) (CepR [3]; Bm-reporter): 100%
18 | CCCCCCCCCCCCCCCC(=O)N[C@H]1CCOC1=O [Compound C16-AHL, hexadecanoyl L-homoserine lactone, reference compound] | – | 35% | – | – | – | CepR agonism in words (CepR [1]; Ec-reporter): inactive; Act% (CepR [1]; [11]): 35%; Inh% (100-Act%) (CepR [2]; screening conc. 25 μM): -10%
19 | O=C(Cc1c[nH]c2ccccc12)N[C@H]1CCOC1=O [Compound B13] | – | – | -1.1 | 22 | – | –
20 | O=C(N[C@H]1CCOC1=O)c1ccc(Oc2ccc(Br)cc2)cc1 [Compound Q10] | – | – | 64 | -40 | – | –
21 | O=C(CCc1ccccc1)N[C@H]1CCOC1=O [Compound B9] | 1000 nM | 88% | 88 | -40 | – | EC50 fold higher than those for substituted PPHLs (CepR [1]; Ec-reporter): ~ 1000 fold
22 | O=C(N[C@H]1CCOC1=O)C1CCC(c2ccc(Cl)cc2)CC1 (stereo partly shown) [Compound D14] | – | – | – | – | – | Act% (CepR [1]; Table S2, Ec-reporter, screening conc. 40 μM): 54%; Inh% (100-Act%) (CepR [2]; screening conc. 40 μM): -20%
23 | O=C(Cc1ccccc1)NC1CCCC1 [Compound F16] | – | – | 7.4 | -30 | – | –
24 | O=C(CC(O)Cc1cccc(I)c1)N[C@H]1CCOC1=O (stereo partly shown) [Compound H15] | – | – | 2.6 | 18 | – | –
25 | CCCC(=O)CC(=O)N[C@H]1CCOC1=O [3’O-C6-AHL, reference compound] | – | – | – | – | – | Maximal Inhibition (%) (CepR [4]; [12]): 85%; IC50 (CepR [4]; [12]): 800 nM
26 | O=C(CCc1ccc(F)cc1)N[C@H]1CCOC1=O [Compound E29] | 2.3 nM | 92% | 92 | -10 | 94 | –
27 | CCCCCCCCCC(O)CC(=O)N[C@H]1CCOC1=O (stereo partly shown) [3’OH-C12-AHL, reference compound] | – | – | 52 | 0.0 | – | –
28 | O=C(Cc1ccc(C(F)(F)F)cc1)N[C@H]1CCOC1=O [Compound C20] | – | – | 0.3 | -52 | – | –
29 | CCCCCOc1ccc(C(=O)N[C@H]2CCOC2=O)cc1 [Compound R5] | – | – | 95 | -10 | – | –
30 | COc1ccc(C(=O)N[C@H]2CCOC2=O)cc1 [Compound Q6] | – | – | 25 | -20 | – | –
31 | COc1ccc(CCC(=O)N[C@H]2CCOC2=O)cc1 [Compound E28] | 3.8 nM | 92% | 92 | -30 | 90 | EC50 (CepR [3]; Table S4, Bm-reporter): 52 nM
